Experimental findings from ChEMBL document CHEMBL5260810, “Inhibition of bromodomain-containing protein 9 for the prevention of epigenetically-defined drug resistance” (Bioorg Med Chem Lett, 2017) are described below.

The structures appear in SMILES notation.

Sequence of Bromodomain-containing protein 2 (P25440 whole entry, the tested form may be a part, canonical isoform): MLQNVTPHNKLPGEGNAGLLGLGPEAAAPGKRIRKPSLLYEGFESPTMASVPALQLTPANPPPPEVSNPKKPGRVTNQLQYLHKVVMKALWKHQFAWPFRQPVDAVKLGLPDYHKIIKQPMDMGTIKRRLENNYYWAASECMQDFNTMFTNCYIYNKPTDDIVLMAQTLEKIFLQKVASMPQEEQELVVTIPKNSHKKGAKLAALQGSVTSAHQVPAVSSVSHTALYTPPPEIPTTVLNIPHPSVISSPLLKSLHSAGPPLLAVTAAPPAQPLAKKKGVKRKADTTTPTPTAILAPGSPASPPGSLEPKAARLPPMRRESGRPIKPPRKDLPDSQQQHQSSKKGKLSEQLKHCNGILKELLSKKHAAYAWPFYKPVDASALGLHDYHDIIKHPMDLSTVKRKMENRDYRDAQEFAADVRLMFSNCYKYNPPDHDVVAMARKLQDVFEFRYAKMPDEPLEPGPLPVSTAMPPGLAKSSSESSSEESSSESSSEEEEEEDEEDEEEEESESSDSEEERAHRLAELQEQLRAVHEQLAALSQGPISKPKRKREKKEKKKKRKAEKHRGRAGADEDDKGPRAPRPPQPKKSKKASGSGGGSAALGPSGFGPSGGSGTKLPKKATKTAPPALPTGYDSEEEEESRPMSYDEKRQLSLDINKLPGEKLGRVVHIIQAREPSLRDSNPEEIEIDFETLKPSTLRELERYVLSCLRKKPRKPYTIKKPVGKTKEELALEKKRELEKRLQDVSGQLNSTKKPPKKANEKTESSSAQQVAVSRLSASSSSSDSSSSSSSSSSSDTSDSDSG
Sequence of Histone acetyltransferase KAT2A (Q92830 whole entry, the tested form may be a part): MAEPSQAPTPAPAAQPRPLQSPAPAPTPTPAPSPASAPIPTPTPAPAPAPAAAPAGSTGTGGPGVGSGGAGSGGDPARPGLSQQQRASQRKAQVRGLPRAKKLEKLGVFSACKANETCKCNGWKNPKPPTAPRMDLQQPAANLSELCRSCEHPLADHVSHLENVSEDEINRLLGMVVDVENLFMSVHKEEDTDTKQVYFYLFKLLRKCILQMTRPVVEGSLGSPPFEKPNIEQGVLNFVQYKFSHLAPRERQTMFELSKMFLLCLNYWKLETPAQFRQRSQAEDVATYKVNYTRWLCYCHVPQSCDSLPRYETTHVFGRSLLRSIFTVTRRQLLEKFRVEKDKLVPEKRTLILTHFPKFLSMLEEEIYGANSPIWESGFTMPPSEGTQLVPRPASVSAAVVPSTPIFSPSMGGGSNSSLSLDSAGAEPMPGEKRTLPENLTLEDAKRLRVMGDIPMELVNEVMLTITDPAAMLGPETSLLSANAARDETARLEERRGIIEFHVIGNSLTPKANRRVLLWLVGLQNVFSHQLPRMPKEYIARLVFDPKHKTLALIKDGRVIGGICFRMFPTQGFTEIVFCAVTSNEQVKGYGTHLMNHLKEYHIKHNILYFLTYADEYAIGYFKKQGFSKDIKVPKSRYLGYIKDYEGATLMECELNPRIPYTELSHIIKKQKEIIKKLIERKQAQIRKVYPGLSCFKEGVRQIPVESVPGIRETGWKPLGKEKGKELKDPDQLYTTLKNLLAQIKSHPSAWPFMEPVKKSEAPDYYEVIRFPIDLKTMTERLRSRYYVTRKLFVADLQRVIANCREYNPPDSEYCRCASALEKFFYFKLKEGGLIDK

The first experiment concerns the target Bromodomain-containing protein 2 (Homo sapiens, UniProt P25440). The experiment can be described thus: Binding affinity to human partial length BRD2 bromodomain 1/2 isoform 1 (K71 to D455 residues) by BROMOscan assay.
Conditions: not given
Take `C/C=C/Cn1cc(-c2cc(OC)c(C(=O)N3CCOCC3)cc2OC)c2cc(C)[nH]c2c1=O`: the Kd (as a rule, the free concentration of one partner at which half of the binding sites on the other are occupied at equilibrium, for simple one-to-one binding) was more than 10 µM.

Regarding `C/C=C/Cn1cc(-c2ccc(C(C)(C)O)cc2OC)c2cc[nH]c2c1=O`, the Kd was 2.8 µM.

In the next experiment the test system is SU-DHL-1. The experiment can be described thus: Cytotoxicity against human SU-DHL-1 cells measured after 8 days. The experiment is classed as functional, cell-based. The note with it: SU-DHL-1, 192 h.
As for `C/C=C/Cn1cc(-c2cc(OC)c(C(=O)N3CCOCC3)cc2OC)c2cc(C)[nH]c2c1=O`, the IC50 (as a rule, the concentration at which inhibition is half-maximal) came to 2 µM.

Molecule `C/C=C/Cn1cc(-c2ccc(C(C)(C)O)cc2OC)c2cc[nH]c2c1=O` had an IC50 of 20 µM.

In another experiment the target is Sodium-dependent serotonin transporter (Homo sapiens) (UniProt P31645). The experiment can be described thus: Displacement of [3H]-imipramine from recombinant human 5-HT transporter at 10 uM after 60 mins by scintillation counting relative to control.
Sequence of Sodium-dependent serotonin transporter (Homo sapiens) (P31645 whole entry, looked up): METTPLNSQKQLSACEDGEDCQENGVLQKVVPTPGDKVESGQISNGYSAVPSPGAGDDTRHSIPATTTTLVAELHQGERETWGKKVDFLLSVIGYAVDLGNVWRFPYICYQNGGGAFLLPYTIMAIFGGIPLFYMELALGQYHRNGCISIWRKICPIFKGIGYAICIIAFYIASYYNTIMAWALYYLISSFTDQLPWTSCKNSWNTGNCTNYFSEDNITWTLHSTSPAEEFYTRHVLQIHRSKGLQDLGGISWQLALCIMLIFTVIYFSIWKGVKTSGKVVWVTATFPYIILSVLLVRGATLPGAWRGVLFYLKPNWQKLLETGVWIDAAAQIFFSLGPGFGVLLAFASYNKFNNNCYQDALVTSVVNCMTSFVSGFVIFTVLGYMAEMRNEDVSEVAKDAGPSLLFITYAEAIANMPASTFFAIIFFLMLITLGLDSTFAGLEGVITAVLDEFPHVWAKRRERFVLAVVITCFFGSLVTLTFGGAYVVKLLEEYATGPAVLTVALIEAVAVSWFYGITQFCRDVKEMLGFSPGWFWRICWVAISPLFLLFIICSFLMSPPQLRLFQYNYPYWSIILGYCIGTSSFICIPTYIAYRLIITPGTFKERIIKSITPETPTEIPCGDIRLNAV
Conditions: not given
For orientation: Loss of bound radioactivity is the signal in a displacement assay; it reports binding, not function.
Regarding `C/C=C/Cn1cc(-c2cc(OC)c(C(=O)N3CCOCC3)cc2OC)c2cc(C)[nH]c2c1=O`, the Activity stood at 4%.

Consider `C/C=C/Cn1cc(-c2ccc(C(C)(C)O)cc2OC)c2cc[nH]c2c1=O`, for which the Activity came to 3%.

The next experiment has as its target T1, E3 ubiquitin-protein ligase TRIM33 (Homo sapiens, UniProt Q9UPN9).
T1 sequence (Q9UPN9 whole entry): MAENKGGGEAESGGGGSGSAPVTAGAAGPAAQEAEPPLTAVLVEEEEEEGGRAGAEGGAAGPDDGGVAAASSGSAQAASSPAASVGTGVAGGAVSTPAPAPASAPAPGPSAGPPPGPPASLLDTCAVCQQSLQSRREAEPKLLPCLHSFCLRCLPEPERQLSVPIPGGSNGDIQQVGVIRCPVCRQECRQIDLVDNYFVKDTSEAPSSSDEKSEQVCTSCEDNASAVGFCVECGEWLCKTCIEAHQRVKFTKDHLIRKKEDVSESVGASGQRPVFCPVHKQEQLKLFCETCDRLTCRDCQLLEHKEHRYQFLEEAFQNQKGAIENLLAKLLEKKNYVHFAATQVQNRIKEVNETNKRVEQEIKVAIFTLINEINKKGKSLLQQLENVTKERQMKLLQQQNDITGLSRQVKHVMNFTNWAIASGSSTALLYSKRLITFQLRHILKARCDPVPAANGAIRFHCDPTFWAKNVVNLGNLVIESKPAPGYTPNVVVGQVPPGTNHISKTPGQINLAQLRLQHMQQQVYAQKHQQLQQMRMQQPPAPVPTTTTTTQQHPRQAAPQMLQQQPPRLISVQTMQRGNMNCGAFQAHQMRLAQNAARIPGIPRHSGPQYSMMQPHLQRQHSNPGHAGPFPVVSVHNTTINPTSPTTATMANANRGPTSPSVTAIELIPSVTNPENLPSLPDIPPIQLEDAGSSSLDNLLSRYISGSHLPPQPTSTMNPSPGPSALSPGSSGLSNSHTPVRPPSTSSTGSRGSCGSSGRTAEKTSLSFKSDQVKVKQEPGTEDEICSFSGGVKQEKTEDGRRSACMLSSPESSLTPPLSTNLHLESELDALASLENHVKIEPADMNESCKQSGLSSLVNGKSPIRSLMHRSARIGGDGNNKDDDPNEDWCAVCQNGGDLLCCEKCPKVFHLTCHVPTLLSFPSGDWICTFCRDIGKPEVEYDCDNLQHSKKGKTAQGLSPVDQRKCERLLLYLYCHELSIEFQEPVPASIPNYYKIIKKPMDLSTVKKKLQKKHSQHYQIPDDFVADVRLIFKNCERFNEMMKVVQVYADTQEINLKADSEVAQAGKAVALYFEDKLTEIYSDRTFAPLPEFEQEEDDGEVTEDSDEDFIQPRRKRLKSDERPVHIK
The experiment can be described thus: Binding affinity to human partial length TRIM33 (D882 to A1087 residues) expressed in bacterial expression system by BROMOscan assay.
Conditions: not given
With `C/C=C/Cn1cc(-c2cc(OC)c(C(=O)N3CCOCC3)cc2OC)c2cc(C)[nH]c2c1=O`, the Kd is more than 5 µM.

For the molecule `C/C=C/Cn1cc(-c2ccc(C(C)(C)O)cc2OC)c2cc[nH]c2c1=O`, the Kd was more than 10 µM.

A further experiment deals with Serine/threonine-protein kinase pim-1 (Homo sapiens) (UniProt P11309). The experiment in a line: Inhibition of PIM1 (unknown origin) at 1 uM relative to control.
Sequence of Serine/threonine-protein kinase pim-1 (Homo sapiens) (P11309 whole entry, looked up): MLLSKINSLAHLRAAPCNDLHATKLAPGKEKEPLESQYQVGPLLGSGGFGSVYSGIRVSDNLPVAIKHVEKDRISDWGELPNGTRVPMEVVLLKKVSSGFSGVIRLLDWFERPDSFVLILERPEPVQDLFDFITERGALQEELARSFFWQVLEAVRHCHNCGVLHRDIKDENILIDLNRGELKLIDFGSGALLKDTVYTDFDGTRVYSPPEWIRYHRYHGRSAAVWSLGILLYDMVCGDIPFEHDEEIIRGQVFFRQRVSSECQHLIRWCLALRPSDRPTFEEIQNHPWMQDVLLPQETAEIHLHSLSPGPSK
Conditions: not given
`C/C=C/Cn1cc(-c2cc(OC)c(C(=O)N3CCOCC3)cc2OC)c2cc(C)[nH]c2c1=O`: the inhibition (usually the percentage by which the read-out fell short of the control) worked out at 2%.

With `C/C=C/Cn1cc(-c2ccc(C(C)(C)O)cc2OC)c2cc[nH]c2c1=O`, the inhibition turned out to be 0.5%.

A further experiment has as its target Histone acetyltransferase KAT2A (Homo sapiens, UniProt Q92830). The experiment in a line: Binding affinity to human partial length GCN5L2 (E726 to K837 residues) expressed in bacterial expression system by BROMOscan assay.
Conditions: not given
On to `C/C=C/Cn1cc(-c2cc(OC)c(C(=O)N3CCOCC3)cc2OC)c2cc(C)[nH]c2c1=O`, for which the Kd was more than 10 µM.

`C/C=C/Cn1cc(-c2ccc(C(C)(C)O)cc2OC)c2cc[nH]c2c1=O` returned a Kd of 0.41 µM.

Tested on in a further experiment: not listed separately
The experiment in a line: Cytotoxicity against human OCI-M2 cells measured after 8 days. Format: functional, cell-based. The note with it: OCI-M2, 192 h.
For the molecule `C/C=C/Cn1cc(-c2cc(OC)c(C(=O)N3CCOCC3)cc2OC)c2cc(C)[nH]c2c1=O`, it took 2 µM to reach half-maximal inhibition (IC50).

Turning to `C/C=C/Cn1cc(-c2ccc(C(C)(C)O)cc2OC)c2cc[nH]c2c1=O`, the IC50 is 20 µM.

The next experiment deals with HCC70. The experiment can be described thus: Cytotoxicity against human HCC70 cells measured after 8 days. Format: functional, cell-based. The note with it: HCC70, 192 h.
As to `C/C=C/Cn1cc(-c2cc(OC)c(C(=O)N3CCOCC3)cc2OC)c2cc(C)[nH]c2c1=O`, the IC50 worked out at 2 µM.

`C/C=C/Cn1cc(-c2ccc(C(C)(C)O)cc2OC)c2cc[nH]c2c1=O` came in with an IC50 of 20 µM.

The next experiment concerns CX-1. The experiment in a line: Cytotoxicity against human CX-1 cells measured after 8 days. Format: functional, cell-based. The note with it: CX-1, 192 h.
`C/C=C/Cn1cc(-c2cc(OC)c(C(=O)N3CCOCC3)cc2OC)c2cc(C)[nH]c2c1=O`: the IC50 stood at 2 µM.

`C/C=C/Cn1cc(-c2ccc(C(C)(C)O)cc2OC)c2cc[nH]c2c1=O` showed an IC50 of 20 µM.

The subject of a further experiment is HCT-15. The experiment in a line: Cytotoxicity against human HCT-15 cells measured after 8 days. Format: functional, cell-based. The note with it: HCT-15, 192 h.
With `C/C=C/Cn1cc(-c2cc(OC)c(C(=O)N3CCOCC3)cc2OC)c2cc(C)[nH]c2c1=O`, the IC50 came to 2 µM.

`C/C=C/Cn1cc(-c2ccc(C(C)(C)O)cc2OC)c2cc[nH]c2c1=O`: the IC50 amounted to 14.6 µM.

Tested on in the next experiment: not listed separately
The experiment can be described thus: Cytotoxicity against human HCC461 cells measured after 8 days. Format: functional, cell-based. The settings on record: HCC461, 192 h.
`C/C=C/Cn1cc(-c2cc(OC)c(C(=O)N3CCOCC3)cc2OC)c2cc(C)[nH]c2c1=O` displayed an IC50 of 2 µM.

Turning to `C/C=C/Cn1cc(-c2ccc(C(C)(C)O)cc2OC)c2cc[nH]c2c1=O`, the IC50 turned out to be 20 µM.

A further experiment deals with MFM-223. The experiment can be described thus: Cytotoxicity against human MFM-223 cells measured after 8 days. Format: functional, cell-based. The note with it: MFM-223, 192 h.
For the molecule `C/C=C/Cn1cc(-c2cc(OC)c(C(=O)N3CCOCC3)cc2OC)c2cc(C)[nH]c2c1=O`, half-maximal inhibition (IC50) required 1.46 µM.

Regarding `C/C=C/Cn1cc(-c2ccc(C(C)(C)O)cc2OC)c2cc[nH]c2c1=O`, half-maximal inhibition (IC50) was put at 11.6 µM.

For the next experiment, the target named is Bromodomain-containing protein 3 (Homo sapiens, UniProt Q15059). The experiment can be described thus: Binding affinity to human partial length BRD3 bromodomain 1 (P24 to E144 residues) expressed in bacterial expression system by BROMOscan assay.
Sequence of Bromodomain-containing protein 3 (Q15059 whole entry, the tested form may be a part): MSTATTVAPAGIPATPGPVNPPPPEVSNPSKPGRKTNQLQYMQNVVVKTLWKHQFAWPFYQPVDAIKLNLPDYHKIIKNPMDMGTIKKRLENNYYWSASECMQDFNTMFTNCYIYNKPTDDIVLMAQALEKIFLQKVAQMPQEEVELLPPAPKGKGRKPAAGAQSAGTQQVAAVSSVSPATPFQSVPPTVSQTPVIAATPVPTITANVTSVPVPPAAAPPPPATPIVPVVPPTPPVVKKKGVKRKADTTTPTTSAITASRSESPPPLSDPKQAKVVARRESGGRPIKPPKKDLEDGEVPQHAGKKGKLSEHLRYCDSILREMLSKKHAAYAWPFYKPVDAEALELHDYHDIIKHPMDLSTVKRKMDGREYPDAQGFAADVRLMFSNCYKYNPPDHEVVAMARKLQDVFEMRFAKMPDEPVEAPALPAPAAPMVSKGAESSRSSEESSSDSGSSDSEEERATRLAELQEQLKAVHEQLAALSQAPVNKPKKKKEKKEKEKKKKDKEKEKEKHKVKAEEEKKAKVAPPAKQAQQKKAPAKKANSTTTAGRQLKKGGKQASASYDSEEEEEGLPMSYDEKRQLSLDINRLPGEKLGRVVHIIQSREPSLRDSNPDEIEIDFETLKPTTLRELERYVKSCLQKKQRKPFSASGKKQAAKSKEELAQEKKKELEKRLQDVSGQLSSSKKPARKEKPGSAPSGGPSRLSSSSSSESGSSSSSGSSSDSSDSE
Conditions: not given
As to `C/C=C/Cn1cc(-c2cc(OC)c(C(=O)N3CCOCC3)cc2OC)c2cc(C)[nH]c2c1=O`, the Kd is more than 10 µM.

In turn, `C/C=C/Cn1cc(-c2ccc(C(C)(C)O)cc2OC)c2cc[nH]c2c1=O` registered a Kd of 3.2 µM.

Another experiment concerns HCC1937. The experiment in a line: Cytotoxicity against human HCC1937 cells measured after 8 days. The experiment is classed as functional, cell-based. The note with it: HCC1937, 192 h.
The molecule `C/C=C/Cn1cc(-c2cc(OC)c(C(=O)N3CCOCC3)cc2OC)c2cc(C)[nH]c2c1=O` showed an IC50 of 2 µM.

The molecule `C/C=C/Cn1cc(-c2ccc(C(C)(C)O)cc2OC)c2cc[nH]c2c1=O` registered an IC50 of 20 µM.

A further experiment has as its system RL. The experiment in a line: Cytotoxicity against human RL cells measured after 8 days. The note with it: 192 h. The experiment is classed as functional, cell-based.
In turn, `C/C=C/Cn1cc(-c2cc(OC)c(C(=O)N3CCOCC3)cc2OC)c2cc(C)[nH]c2c1=O` registered an IC50 of 2 µM.

`C/C=C/Cn1cc(-c2ccc(C(C)(C)O)cc2OC)c2cc[nH]c2c1=O` showed an IC50 of 14.8 µM.

A further experiment concerns EOL1. The experiment can be described thus: Cytotoxicity against human EOL1 cells measured after 8 days. Format: functional, cell-based. The note with it: EOL1, 192 h.
Regarding `C/C=C/Cn1cc(-c2cc(OC)c(C(=O)N3CCOCC3)cc2OC)c2cc(C)[nH]c2c1=O`, the IC50 turned out to be 1.34 µM.

Molecule `C/C=C/Cn1cc(-c2ccc(C(C)(C)O)cc2OC)c2cc[nH]c2c1=O` showed an IC50 of 3.3 µM.

The next experiment deals with MDA-MB-436. The experiment can be described thus: Cytotoxicity against human MDA-MB-436 cells measured after 8 days. The experiment is classed as functional, cell-based. The note with it: MDA-MB-436, 192 h.
The molecule `C/C=C/Cn1cc(-c2cc(OC)c(C(=O)N3CCOCC3)cc2OC)c2cc(C)[nH]c2c1=O` yielded an IC50 of 2 µM.

`C/C=C/Cn1cc(-c2ccc(C(C)(C)O)cc2OC)c2cc[nH]c2c1=O` gave an IC50 of 20 µM.

Another experiment concerns COLO 320. The experiment can be described thus: Cytotoxicity against human COLO 320 cells measured after 8 days. Format: functional, cell-based. The settings on record: COLO 320, 192 h.
Consider `C/C=C/Cn1cc(-c2cc(OC)c(C(=O)N3CCOCC3)cc2OC)c2cc(C)[nH]c2c1=O`, for which the IC50 was determined as 2 µM.

For the molecule `C/C=C/Cn1cc(-c2ccc(C(C)(C)O)cc2OC)c2cc[nH]c2c1=O`, the IC50 worked out at 20 µM.

Tested on in another experiment: not listed separately
The experiment can be described thus: Cytotoxicity against human OVCA429 cells measured after 8 days. Format: functional, cell-based. The note with it: OVCA429, 192 h.
Consider `C/C=C/Cn1cc(-c2cc(OC)c(C(=O)N3CCOCC3)cc2OC)c2cc(C)[nH]c2c1=O`, for which the IC50 was determined as 1.77 µM.

Take `C/C=C/Cn1cc(-c2ccc(C(C)(C)O)cc2OC)c2cc[nH]c2c1=O`: the IC50 stood at 20 µM.

For a further experiment, the system named is EVSA-T. The experiment in a line: Cytotoxicity against human EVSA-T cells measured after 8 days. The experiment is classed as functional, cell-based. The settings on record: 192 h.
`C/C=C/Cn1cc(-c2cc(OC)c(C(=O)N3CCOCC3)cc2OC)c2cc(C)[nH]c2c1=O` displayed an IC50 of 2 µM.

`C/C=C/Cn1cc(-c2ccc(C(C)(C)O)cc2OC)c2cc[nH]c2c1=O`: it took 20 µM to reach half-maximal inhibition (IC50).

Tested on in the next experiment: not listed separately
The experiment in a line: Cytotoxicity against human HCC2279 cells measured after 8 days. The experiment is classed as functional, cell-based. The settings on record: HCC2279, 192 h.
On to `C/C=C/Cn1cc(-c2cc(OC)c(C(=O)N3CCOCC3)cc2OC)c2cc(C)[nH]c2c1=O`, for which the IC50 came out at 2 µM.

The molecule `C/C=C/Cn1cc(-c2ccc(C(C)(C)O)cc2OC)c2cc[nH]c2c1=O` registered an IC50 of 20 µM.
